Tests used:
[1] = tested on: M. avium strain 2285 rough; test: Acute mouse model of M. avium infection in the Beige mouse; type: in vivo; details: treatment end, Oral 20 mg/kg every other day from day 7
M. abscessus strain 103 = test: Mouse model of M. abscessus in the SCID mouse; type: in vivo; details: treatment end
[2] = Pharmacokinetics of clofazimine delivered by nebulization in healthy subjects
Experimental: (§2) For placebo, subjects were treated with a nebulized sterile, isotonic saline solution consisting of 0.9% wt/v sodium chloride. […] The doses were administered by inhalation with a Pari e-Flow nebulizer system to investigate tolerability and pharmacokinetics (PK) in healthy human subjects. The subjects were monitored for any life-threatening or severe adverse events and samples of their blood were taken for analysis.
(§3) Participants resided at the clinical research unit until day 5 post-dose, during which time they were evaluated for safety and samples were collected for PK assessment. Participants returned on days 8 and 15 for additional safety assessments and sample collection. […] Participants resided at the clinical research unit until day 8 post-dose, during which time they were evaluated for safety and samples were collected for PK assessment. Participants returned on days 15 and 36 for additional safety assessments and sample collection.

M. avium = test: Minimum inhibitory concentration, microbroth dilution, presence and absence of CF sputum; type: cell-based; details: Mycobacterium avium, M. avium B18101968; + SP (10% CF sputum)
Experimental: Minimum inhibitory concentration (MIC) testing was performed by microbroth dilution method using Mueller Hinton (MH) broth (Cation Adjusted) to the calcium and magnesium ion concentration recommended in the CLSI standard M7-A7 (Becton Dickinson). MIC testing also was performed by microbroth dilution method using 7H9 broth (Sigma-Aldrich). […] M. abscessus was grown on 7H11 agar plates (Sigma-Aldrich) for 3 days at 35-37° C. in ambient air (depending on bacterial strain), and M. avium was grown on agar 7H11 plates (Sigma-Aldrich) for 21-30 days at 37° C. in ambient air.
The colony forming units (CFUs) are taken from the agar plates and placed in either MH or 7H9 broth with 0.05% tween-80 and grown at 35-37° C. in ambient air until the optical density (OD) absorbance taken after 3 days (M. abscessus) or 12 (M. avium) of growth is an (OD) 0.08-0.1 (0.5 McFarland Standard). The bacterial cell suspensions are then confirmed by preparing them in saline, matching the (OD) 0.08-0.1 (0.5 McFarland Standard). […]
Minimum inhibitory concentrations assays were performed as described above. […] The MIC of the Composition of Example 1 was measured following the same CLSI protocol as described above, in the presence and absence of cystic fibrosis patient sputum. […]

[3] = BCS class II drug; cited from earlier work
[4] = cited from earlier work
M. avium 2285 rough = test: Chronic Beige mouse model; type: in vivo, Beige mice; details: Day 57, Oral 20 mg/kg, 14 treatments every other day from Day 28
[5] = Safety and tolerability of clofazimine delivered by nebulization in healthy subjects; details: inhaled, nebulized
Experimental: as §2, §3

[6] = Lung and other tissue toxicokinetics, 28-day inhalation study in dogs; details: Beagle, in vivo, inhaled or intranasal, dog lung, SD29 to SD84, read-out: lung terminal elimination half-life (converted)
From the text: Clofazimine was extracted by protein precipitation from dog plasma.

clinical = details: human, plasma, inhaled
Experimental: as §2, §3

[7] = Plasma toxicokinetics, 28-day inhalation study in dogs; details: Beagle, dog, in vivo, inhaled or intranasal
Experimental: The animals were studied for a period of 84 days.
All GLP canine study activities were performed by Lovelace Biomedical Research Institute (LBRI) under an IACUC approved protocol. Five groups of Beagle dogs were divided into study groups (Table 1) and exposed once daily by face-mask inhalation to filtered air (Group 1), vehicle (Group 2-0.5% polysorbate in saline), or CIS (Groups 3-5) for 28 consecutive days. The Low, Mid, and High doses (Groups 3, 4, and 5) were exposed to an average aerosol concentration of 0.209 mg/L for 30 min, 60 min and 120 min, respectively. The 28-day exposure period was followed by 28- and 56-day no exposure recovery periods (Recovery Study, Study Day (SD) 56 and 84 respectively). Blood was collected for toxicokinetic (TK) analysis from animals after both the first day of dose administration (Day 1; (0.5 hours (±5 minutes), 6 hours (±30 minutes), 12 hours (±30 minutes), 24 hours (±1 hour)), the last day of dose administration (SD28), and at […], SD56 and SD84, as indicated in Table 1. Main Study animals were necropsied one day post final exposure (SD29), while two male and two female Recovery Study animals were each necropsied on SD56 and SD84.
Aerosolized CIS was delivered to each dog by way of a 6-port aerosol exposure system using three Micro Mist compressed air jet nebulizers. (Supplementary Figure S1) All animals were conditioned to the face masks and restraint system before study. The exposure system and aerosol characteristics of the API and vehicle, including target aerosol concentration, concentration homogeneity, concentration repeatability, and aerosol size distribution were confirmed by LBRI prior to study. Dosing for each dog was measured for every dose delivered throughout study and calculated against individual dog weights.
Blood samples were immediately processed or held on wet ice for no more than 2 hours (hr) before being processed to plasma by centrifugation (1300 g, 2-8° C., ≥10 minutes), with plasma separated into appropriately labeled vials and stored frozen (−70 to −90° C.) until CFZ analysis.
Main study animals (3M/3F per timepoint) had blood samples collected at the following timepoints post-exposure on SD1 and SD28: 0.5 hr (±5 minutes), 6.0 hr (±30 minutes), 12 hr (±30 minutes), and 24 hr (±1 hr). Recovery animals (2M/2F per Recovery timepoint) from each group had blood collected on SD42, and prior to euthanasia on SD56 or SD84. The sample size for each group, sex, and timepoint is described in Table 1. Actual collection times were documented, and all animals in this study underwent scheduled sampling at their respective timepoints.
Retention time and peak area were determined by Analyst® Data Acquisition/Processing Software (Version 1.6.3). Analyte concentrations were obtained from a calibration curve constructed by plotting the peak area versus the nominal concentration using Analyst.
Clinical observations were descriptive while numerical evaluations (means and standard deviations) were used for all other parameters where possible. Toxicokinetic parameters were estimated for blood plasma using Phoenix WinNonlin version 8.3 software (Certara L.P.) with a non-compartmental analysis (NCA) consistent with aerosol administration (extravascular model) on each subject at each timepoint. NCA was only performed if there were quantifiable concentrations at two consecutive timepoints. Concentration values below the lower limit of quantitation of 2.00 ng/ml for plasma were labeled as below quantitative limits (BQL). These BQL values were treated as missing and excluded from calculation of descriptive statistics and toxicokinetic analysis.
Concentrations were used with full precision to three significant figures as received from bioanalytical data.

A549 = test: Effects of surfactants on cell viability, MTT assay; type: cell-based, human; details: 1% in HBSS, positive control
Experimental: (§1) Effects of surfactants on cell viability study: The effects of a surfactant such as polysorbate 80 (PS 80) containing various fatty acids components were used in this study to determine their effect on cell viability in the lungs upon administration of composition for lung delivery. In vitro experiments were carried out using three different human cell lines, i.e., human cell lines A549 (type II pulmonary epithelial cell derived), hAELVi, (human alveolar epithelial cell) and Calu-3 (lung adenocarcinoma cell). The cell lines were obtained from ATCC (Bethesda, MD) and maintained as recommended by the provider and seeded and incubated for the 24 hour test in 96-well plates containing 4×10^4/well in RPMI 1640 medium (Gibco). For testing, the medium as aspirated, the cells were washed twice with Hank's balanced Salt Solution (HBSS) at pH 7.4 and a 0.2 ml sample solution containing a surfactant was added to the cells. HBSS was used as negative control as well as HBSS containing 1% TritonX-100 as positive control. Surfactants under study were two, a super-refined grade PS 80 comprising a mixture of various fatty acid esters of about 70% to 85% total content being oleic acid and having other components including, mystiric, palmitic, palmitoleic, stearic, linoleic and linolenic acid esters. This super-refined PS 80 (Tween® 80, A) manufactured by Mallinckrodt Baker or Merck, and a second PS 80 (B, NOF Corporation) comprising an oleic acid component of about 99% were tested. In the experiments to determine the in vitro IC50 values, the cell lines were exposed to equal concentrations of the two surfactants in HBSS solution at the same concentrations and several dilutions of the test compounds after incubation for 4 hours at 37° C. with shaking, washed with HBSS. Cell viability was assessed based on the absorbance measurements at 550 nm obtained using the MTT assay as described in Metz et al., J. ALTEX, Jan. 29, 2020: V.2 doi:10.14573/altex.1910231. FIGS. 8 and 9, and Table 16 illustrate data obtained from the experiments.

Calu-3 = test: as above; type: cell-based, human; details: 1% in HBSS, positive control
Experimental: as §1

hAELVi = test: as above; type: cell-based, human; details: 1% in HBSS, positive control
Experimental: as §1

CC(C)/N=c1\cc2n(-c3ccc(Cl)cc3)c3ccccc3nc-2cc1Nc1ccc(Cl)cc1 [Clofazimine, N,5-bis(4-chlorophenyl)-3-propan-2-yliminophenazin-2-amine]
Liver Log10 CFU ± SEM [1]: 3.01 ± 0.03 Log10 CFU
Lung Log10 CFU ± SEM [1]: 3.95 ± 0.03 Log10 CFU
Spleen Log10 CFU ± SEM [1]: 3.14 ± 0.03 Log10 CFU
Liver Log10 CFU ± SEM (M. abscessus strain 103; Oral 20 mg/kg every other day): 4.78 ± 0.18 Log10 CFU
Lung Log10 CFU ± SEM (M. abscessus strain 103; Oral 20 mg/kg every other day): 3.33 ± 0.17 Log10 CFU
Spleen Log10 CFU ± SEM (M. abscessus strain 103; Oral 20 mg/kg every other day): 3.79 ± 0.10 Log10 CFU
time to peak plasma concentrations ([2]; repeated administration, inhaled 30 or 90 mg daily for seven days): 2 to 12 h
time to peak plasma concentrations ([2]; single administration, inhaled 30, 60, 90 mg): 4 to 8 h
increase in AUC0-24 ([2]; single administration, dose increase of 1.5-fold): 1.6 fold
increase in AUC0-24 ([2]; single administration, dose increase of 2-fold): 2.3 fold
MIC (M. avium): > 2 µg/mL
solubility in water [3]: practically insoluble in water
absorption in humans after oral administration [4]: 45-62%
Liver Log10 CFU ± SEM (M. avium 2285 rough): 4.07 ± 0.04 Log10 CFU
Lung Log10 CFU ± SEM (M. avium 2285 rough): 5.94 ± 0.12 Log10 CFU
Spleen Log10 CFU ± SEM (M. avium 2285 rough): 3.08 ± 0.04 Log10 CFU
Columbia Suicide Severity Rating Scale (C-SSRS) [5]: no suicidal ideation or behavior
ECG results [5]: no abnormal, clinically significant electrocardiogram
skin discoloration [5]: no evidence of skin discoloration
half-life ([6]; female, 2.95 mg/kg, Low dose females): 262 h
half-life ([6]; male, 5.45 mg/kg, Mid dose males): 239 h
half-life ([6]; male, 10.87 mg/kg, High dose males): 475 h
half-life (clinical): 290 h
half-life ([7]; female, 0.74 mg/kg): 8.99 h
half-life ([7]; female, 1.48 mg/kg): 9.43 h
half-life ([7]; female, 2.52 mg/kg): 7.23 h
half-life ([7]; male, 0.68 mg/kg): 7.19 h
half-life ([7]; male, 1.36 mg/kg): 8.95 h
half-life ([7]; male, 2.72 mg/kg): 7.89 h

NCC[C@H](O)C(=O)N[C@@H]1C[C@H](N)[C@@H](O[C@H]2O[C@H](CN)[C@@H](O)[C@H](O)[C@H]2O)[C@H](O)[C@H]1O[C@H]1O[C@H](CO)[C@@H](O)[C@H](N)[C@H]1O [Amikacin, amikacin]
Liver Log10 CFU ± SEM (M. abscessus strain 103; SQ 150 mg/kg every other day): 3.07 ± 0.10 Log10 CFU
Lung Log10 CFU ± SEM (M. abscessus strain 103; SQ 150 mg/kg every other day): 3.94 ± 0.11 Log10 CFU
Spleen Log10 CFU ± SEM (M. abscessus strain 103; SQ 150 mg/kg every other day): 4.37 ± 0.31 Log10 CFU

Triton X-100
cell viability (A549): loss all viability
cell viability (Calu-3): loss all viability
cell viability (hAELVi): loss all viability

From patent US20260069590A1, “METHOD FOR TREATING NONTUBERCULOUS MYCOBACTERIAL INFECTION” (priority 2022, published 2026)
